Patent US7713971B2, “1,2,4-triazine derivatives, preparation and use thereof in human therapy” (Pierre Fabre Medicament, priority 2005, dated 2010)
Where two headings read alike, the source gives them in different places.

How the values were obtained:
human PPARα = target: T1, human PPARα (Homo sapiens, UniProt Q07869); assay: Reporter gene transactivation, hPPAR-GAL4 alpha; type: cell-based; details: transfected Cos-7 cells, Gal-4 luciferase reporter, 24 hours treatment
T1 construct: expressed in transfected cells; host or cells: Cos-7 cells (ATCC, CRL-1651)
T1 sequence (Q07869 239-466 limits assumed): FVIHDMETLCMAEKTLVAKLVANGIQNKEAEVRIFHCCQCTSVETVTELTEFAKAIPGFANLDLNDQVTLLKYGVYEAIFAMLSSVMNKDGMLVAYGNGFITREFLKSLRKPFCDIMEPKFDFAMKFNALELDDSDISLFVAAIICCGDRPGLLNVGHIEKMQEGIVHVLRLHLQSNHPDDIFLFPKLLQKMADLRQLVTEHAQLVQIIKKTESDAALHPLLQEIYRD

human PPARγ = target: T2, human PPARγ (Homo sapiens, UniProt P37231); assay: Reporter gene transactivation, hPPAR-GAL4 gamma; type: cell-based; details: transfected Cos-7 cells, Gal-4 luciferase reporter, 24 hours treatment
T2 construct: expressed in transfected cells; host or cells: Cos-7 cells (ATCC, CRL-1651)
T2 sequence (P37231 238-503 limits assumed): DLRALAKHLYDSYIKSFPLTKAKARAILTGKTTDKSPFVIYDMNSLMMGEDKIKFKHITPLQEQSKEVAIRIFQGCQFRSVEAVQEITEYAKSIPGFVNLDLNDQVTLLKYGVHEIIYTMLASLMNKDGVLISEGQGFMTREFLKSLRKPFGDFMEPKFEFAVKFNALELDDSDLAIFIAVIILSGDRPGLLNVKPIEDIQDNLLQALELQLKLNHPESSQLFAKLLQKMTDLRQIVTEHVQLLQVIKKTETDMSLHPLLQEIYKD

[1] = test system: insulin-resistant male rat (Ico: ZUCKER-fa/fa); assay: Normalization of metabolic parameters (cholesterol, plasma triglycerides) in insulin-resistant rat; type: in vivo; details: oral route, once per day for four days, Zucker fa/fa rat unfed 16-18 hours; for change in vivo at 2.5 mg/kg / change in vivo at 10 mg/kg: 96 h; for change in vivo at 2.5 mg/kg / Plasma triglycerides: at 2.5 mg/kg
Experimental: Normalization of metabolic parameters (cholesterol, plasma triglycerides) in an insulin-resistant male rat (Ico: ZUCKER-fa/fa), unfed for 16-18 hours, after treatment by oral route, once per day for four days, with the compounds to be evaluated or their administration vehicle.
These metabolic parameters are measured by spectrophotometry at the beginning and the end of each animal's treatment.

[2] = at 10 mg/kg, read-out: Plasma cholesterol
[3] = at 10 mg/kg, read-out: Plasma triglycerides

EC50 (human PPARα) [µM] | EC50 (human PPARγ) [µM] | Structure (SMILES) | other results
0.3 to 1 | 1 to 3 | CCCCn1c(=O)c(OCCCCCc2cccc(OC(C)(C)C(=O)OCC)c2)nn(C)c1=O [Example 11, Ethyl 2-{3-[5-(4-butyl-2-methyl-3,5-dioxo-2,3,4,5-tetrahydro-[1,2,4]triazin-6-yloxy)-pentyl]-phenoxy}-2-methyl-propionate] | change in vivo at 2.5 mg/kg ([1]; read-out: Plasma cholesterol): -25%; change in vivo at 10 mg/kg [1, 2]: -25%; change in vivo at 10 mg/kg [1, 3]: -37%; Plasma triglycerides [1]: inactive at 2.5
0.001 to 0.003 | 0.1 to 0.3 | CCCCCCCn1nc(OCCCCCc2cccc(OC(C)(C)C(=O)OCC)c2)c(=O)n(CCCC)c1=O [Example 15, Ethyl 2-{3-[5-(4-butyl-2-heptyl-3,5-dioxo-2,3,4,5-tetrahydro-[1,2,4]triazin-6-yloxy)-pentyl]-phenoxy}-2-methyl-propionate] | change in vivo at 2.5 mg/kg ([1]; read-out: Plasma cholesterol): -4%; change in vivo at 2.5 mg/kg ([1]; read-out: Plasma triglycerides): -22%; change in vivo at 10 mg/kg [1, 2]: -8%; change in vivo at 10 mg/kg [1, 3]: -63%
~0.1 | 3 to 10 | CCOC(=O)C(C)(C)Oc1cccc(CCCCCOc2nn(C)c(=O)n(CCCC(F)(F)F)c2=O)c1 [Example 16, Ethyl 2-methyl-2-(3-{5-[2-methyl-3,5-dioxo-4-(4,4,4-trifluoro-butyl)-2,3,4,5-tetrahydro-[1,2,4]triazin-6-yloxy]-pentyl}-phenoxy)-propionate] | change in vivo at 2.5 mg/kg ([1]; read-out: Plasma cholesterol): -14%; change in vivo at 10 mg/kg [1, 2]: -25%; change in vivo at 10 mg/kg [1, 3]: -15%; Plasma triglycerides [1]: inactive at 2.5
0.3 to 1 | ~0.3 | CCCCCCCn1c(=O)c(OCCCCCc2cccc(OC(C)(C)C(=O)OCC)c2)nn(C)c1=O [Example 17, Ethyl 2-{3-[5-(4-heptyl-2-methyl-3,5-dioxo-2,3,4,5-tetrahydro-[1,2,4]triazin-6-yloxy)-pentyl]-phenoxy}-2-methyl-propionate] | change in vivo at 10 mg/kg [1, 3]: -37%; Plasma cholesterol ([1]; at 10 mg/kg): active at 10
> 10 | > 10 | CCCCCCCn1c(=O)c(NCCCOc2ccc(SC(C)(C)C(=O)OCC)cc2)nn(C)c1=O [Example 49, Ethyl 2-{4-[3-(4-heptyl-2-methyl-3,5-dioxo-2,3,4,5-tetrahydro-[1,2,4]triazin-6-ylamino)-propoxy]-phenylsulfanyl}-2-methyl-propionate] | 
3 to 10 | > 10 | CCCCCCCn1nc(N(CCCOc2cccc(OC(C)(C)C(=O)OCC)c2)CCCC(F)(F)F)c(=O)n(C)c1=O [Example 51, Ethyl 2-(3-{3-[(2-heptyl-4-methyl-3,5-dioxo-2,3,4,5-tetrahydro-[1,2,4]triazin-6-yl)-(4,4,4-trifluoro-butyl)-amino]-propoxy}-phenoxy)-2-methyl-propionate] | 
~3 | 1 to 3 | CCCCCCCn1nc(NCCc2cccc(OC(C)(C)C(=O)OCC)c2)c(=O)n(C)c1=O [Example 57, Ethyl 2-{3-[2-(2-heptyl-4-methyl-3,5-dioxo-2,3,4,5-tetrahydro-[1,2,4]triazin-6-ylamino)-ethyl]-phenoxy}-2-methyl-propionate] | 
> 10 | 3 to 10 | CCCCCCCn1nc(NCCCc2cccc(OC(C)(C)C(=O)OCC)c2)c(=O)n(C)c1=O [Example 64, Ethyl 2-{3-[3-(2-heptyl-4-methyl-3,5-dioxo-2,3,4,5-tetrahydro-[1,2,4]triazin-6-ylamino)-propyl]-phenoxy}-2-methyl-propionate] | 
1 to 3 | ~10 | CCCCCCCn1nc(NCCCc2cccc(OC(C)(C)C(=O)OCC)c2)c(=O)n(CCCCCCC)c1=O [Example 69, Ethyl 2-{3-[3-(2,4-diheptyl-3,5-dioxo-2,3,4,5-tetrahydro-[1,2,4]triazin-6-ylamino)-propyl]-phenoxy}-2-methyl-propionate] | 
~1 | ~10 | CCCCCCCn1c(=O)c(NCCCc2cccc(OC(C)(C)C(=O)OCC)c2)nn(Cc2ccccc2)c1=O [Example 70, Ethyl 2-{3-[3-(2-benzyl-4-heptyl-3,5-dioxo-2,3,4,5-tetrahydro-[1,2,4]triazin-6-ylamino)-propyl]-phenoxy}-2-methyl-propionate] | 
> 10 | ~1 | CCCCCCCn1c(=O)c(NCCCCc2cccc(OC(C)(C)C(=O)OCC)c2)nn(CCC#N)c1=O [Example 86, Ethyl 2-(3-{4-[2-(2-cyano-ethyl)-4-heptyl-3,5-dioxo-2,3,4,5-tetrahydro-[1,2,4]triazin-6-ylamino]-butyl}-phenoxy)-2-methyl-propionate] | 
~0.3 | 0.1 to 0.3 | CCCCCCCn1c(=O)c(NCCCCc2cccc(OC(C)(C)C(=O)OCC)c2)nn(C/C=C/C(=O)OCC)c1=O [Example 87, Ethyl 4-(6-{4-[3-(1-ethoxycarbonyl-1-methyl-ethoxy)-phenyl]-butylamino}-4-heptyl-3,5-dioxo-4,5-dihydro-3H-[1,2,4]triazin-2-yl)-but-2-enonate] | 
~0.3 | ~10 | CCCCCCCn1nc(NCCCCc2cccc(OC(C)(C)C(=O)OCC)c2)c(=O)n(CCCCCCC)c1=O [Example 88, Ethyl 2-{3-[4-(2,4-diheptyl-3,5-dioxo-2,3,4,5-tetrahydro-[1,2,4]triazin-6-ylamino)-butyl]-phenoxy}-2-methyl-propionate] | 
0.3 to 1 | 3 to 10 | CCCCCCCn1nc(NCCCCc2cccc(OC(C)(C)C(=O)OCC)c2)c(=O)n(Cc2ccccc2)c1=O [Example 91, Ethyl 2-{3-[4-(4-benzyl-2-heptyl-3,5-dioxo-2,3,4,5-tetrahydro-[1,2,4]triazin-6-ylamino)-butyl]-phenoxy}-2-methyl-propionate] | 
3 to 10 | 3 to 10 | CCCCCCCn1nc(NCCCCc2cccc(SC(C)(C)C(=O)OCC)c2)c(=O)n(C)c1=O [Example 94, Ethyl 2-{3-[4-(2-heptyl-4-methyl-3,5-dioxo-2,3,4,5-tetrahydro-[1,2,4]triazin-6-ylamino)-butyl]-phenylsulfanyl}-2-methyl-propionate] | 
> 10 | 3 to 10 | CCCCCCCn1c(=O)c(NCCCCc2cccc(SC(C)(C)C(=O)OCC)c2)nn(Cc2ccccc2)c1=O [Example 99, Ethyl 2-{3-[4-(2-benzyl-4-heptyl-3,5-dioxo-2,3,4,5-tetrahydro-[1,2,4]triazin-6-ylamino)-butyl]-phenylsulfanyl}-2-methyl-propionate] | 
1 to 3 | > 10 | CCOC(=O)C(C)(C)Sc1cccc(CCCCNc2nn(CCCC(F)(F)F)c(=O)n(Cc3ccccc3)c2=O)c1 [Example 100, Ethyl 2-(3-{4-[4-Benzyl-3,5-dioxo-2-(4,4,4-trifluoro-butyl)-2,3,4,5-tetrahydro-[1,2,4]triazin-6-ylamino]-butyl}-phenylsulfanyl)-2-methyl-propionate] | 
1 to 3 | > 10 | CCOC(=O)/C=C/Cn1nc(NCCc2ccc(OC(C)(C)C(=O)OCC)cc2)c(=O)n(CCCC(F)(F)F)c1=O [Example 104, Ethyl 4-[6-{2-[4-(1-ethoxycarbonyl-1-methyl-ethoxy)-phenyl]-ethylamino}-3,5-dioxo-4-(4,4,4-trifluoro-butyl)-4,5-dihydro-3H-[1,2,4]triazin-2-yl]-but-2-enoate] | 
1 to 3 | ~10 | CCOC(=O)C(C)(C)Oc1ccc(CCNc2nn(CCCC3CCCCC3)c(=O)n(CCCC(F)(F)F)c2=O)cc1 [Example 105, Ethyl 2-(4-{2-[2-(3-cyclohexyl-propyl)-3,5-dioxo-4-(4,4,4-trifluoro-butyl)-2,3,4,5-tetrahydro-[1,2,4]triazin-6-ylamino]-ethyl}-phenoxy)-2-methyl-propionate] | 
1 to 3 | ~10 | Cn1c(=O)c(NCCc2ccc(SC(C)(C)C(=O)O)cc2)nn(CCCC(F)(F)F)c1=O [Example 118, 2-Methyl-2-(4-{2-[4-methyl-3,5-dioxo-2-(4,4,4-trifluoro-butyl)-2,3,4,5-tetrahydro-[1,2,4]triazin-6-ylamino]-ethyl}-phenylsulfanyl)-propionic Acid] | 
0.3 to 1 | > 10 | CCCCCCCn1nc(NCCCc2ccc(SC(C)(C)C(=O)OCC)cc2)c(=O)n(C)c1=O [Example 124, Ethyl 2-{4-[3-(2-heptyl-4-methyl-3,5-dioxo-2,3,4,5-tetrahydro-[1,2,4]triazin-6-ylamino)propyl]-phenylsulfanyl}-2-methyl-propionate] | 

Structure (SMILES) | EC50 (human PPARα) [µM] | EC50 (human PPARγ) [µM] | other results
CCCCCCCn1c(=O)c(NCCCCOc2ccc(OC(C)(C)C(=O)OCC)cc2)nn(C)c1=O [Example 50, Ethyl 2-{4-[4-(4-heptyl-2-methyl-3,5-dioxo-2,3,4,5-tetrahydro-[1,2,4]triazin-6-ylamino)-butoxy]-phenoxy}-2-methyl-propionate] | > 10 | ~10 | 
